The values that follow come from paper PMC11530130, “Peripherally restricted PICK1 inhibitor mPD5 ameliorates pain behaviors in murine inflammatory and neuropathic pain models” (JCI Insight, 2024).

For the assay, the system named is mice, spared nerve injury (SNI) model. In words: SNI model, von Frey, single s.c. dose, female mice. The note with it: s.c. 2, 10, 50 μmol/kg (all tested doses), 1 hour after injection. The format is in vivo, mouse. As for the experimental part: solution (0.05 mg/kg) injected s.c. 30 min before surgery (10 μL/g). For surgery, mice were anaesthetised with ketamine (100 mg/kg, i.p.) and xylazine (10 mg/kg, i.p.) (volume 10 µL/g) with 100 μL of 1% xylocaine solution infiltrated at the site of the incision. The distal trifurcation of the sciatic nerve was identified, and the tibial and common peroneal branches were ligated with polypropylene nonabsorbable 6-0 sutures (Ethicon) and 1 mm was cut out, leaving the sural branch intact. The wound was closed with sutures, and the animals were allowed to recover and returned to their cages. […]
Wounds were closed with surgical glue or medical clips and animals were monitored daily for signs of stress or discomfort, but in all cases recovered uneventfully. […]
Unless otherwise specified, von Frey occurred as described in the following. […] Mechanical paw withdrawal threshold (PWT) was determined by von Frey measurements of both hind paws. […]
Mice were placed in PVC plastic boxes (11.5 cm x 14 cm) on a wire mesh and allowed minimum 20 min habituation prior of experiment initiation. Each von Frey hair was applied five times with adequate resting periods between each application and number of withdrawals recorded. The withdrawal threshold was determined as the von Frey filament eliciting at least three positive trials out of the five applications in two consecutive filaments. […]

As for `CCCCCCCCCCCCCC(=O)N(CCOCCOCCC(=O)N[C@@H](Cc1c[nH]cn1)C(=O)N[C@@H](Cc1c[nH]c2ccccc12)C(=O)N[C@@H](CC(C)C)C(=O)N[C@@H](CCCCN)C(=O)N[C@H](C(=O)O)C(C)C)CCOCCOCCC(=O)N[C@@H](Cc1c[nH]cn1)C(=O)N[C@@H](Cc1c[nH]c2ccccc12)C(=O)N[C@@H](CC(C)C)C(=O)N[C@@H](CCCCN)C(=O)N[C@H](C(=O)O)C(C)C` [mPD5, myristoyl-NPEG4-(HWLKV)2], the “effect on mechanical hypersensitivity (PWT)” value is reported as “significantly reduced mechanical hypersensitivity”.
